Measured values from the NIST ThermoML archive (doi:10.1021/je2006117).
“And” between values parts separate entries of the source, which are not always exact repeats. Identical values can stand only once.

Columns and labels:
[1] = mn = molality of the nth substance listed, in mol/kg; conditions: 298.15 K, 101 kPa, Liquid; for mass density: Vibrating tube method; for viscosity: Capillary tube (Ostwald / Ubbelohde) method
[2] = 298.15 K, Liquid
[3] = refractive index (Na D-line) (dimensionless); conditions: 298.15 K; 101.33 kPa; Liquid; Standard Abbe refractometry
[4] = refractive index (Na D-line) (dimensionless); mn = molality of the nth substance listed, in mol/kg; conditions: 298.15 K, 101 kPa, Liquid, Standard Abbe refractometry

C(=NCCN=Cc1ccccn1)c1ccccn1 [N,N'-bis(2-pyridinylmethylene)-1,2-ethanediamine] + CN(C)C=O
[1]
Conditions	mass density
m1 = 0.0401	945.31 kg/m3
m1 = 0.0484	945.37 kg/m3
m1 = 0.0728	946.33 kg/m3
m1 = 0.0941	946.67 kg/m3
m1 = 0.1205	947.34 kg/m3
m1 = 0.1508	948.27 kg/m3
m1 = 0.1553	949.12 kg/m3 and 949.25 kg/m3

CN(C)C=O [dimethylformamide]
[2]
Conditions	mass density	viscosity [mPa·s]
101 kPa, Vibrating tube method	943.88 kg/m3 and 943.99 kg/m3	–
101.33 kPa, Capillary tube (Ostwald / Ubbelohde) method	–	0.8608

Conditions	mass density [kg/m3]
[2], 101.33 kPa	943.88

Conditions	refractive index
[3]	1.4285

CCCCCn1cc[n+](C)c1.[Br-] [1-pentyl-3-methylimidazolium bromide] + CN(C)C=O
Conditions	mass density, [1] [kg/m3]	refractive index, [4]	viscosity, [1] [mPa·s]
m1 = 0.0201	945.2	1.4291	0.877
m1 = 0.0409	946.55	1.4297	0.89
m1 = 0.0618	947.88	1.4299	0.899
m1 = 0.0853	949.36	1.4309	0.912
m1 = 0.1009	950.32	1.4312	0.925
m1 = 0.1186	951.39	1.4317	0.942
m1 = 0.1433	952.9	1.432	0.957
m1 = 0.161	953.93	1.4323	0.965
m1 = 0.1798	955.02	1.4329	0.982
m1 = 0.205	956.48	1.4333	0.991

CCC[n+]1ccn(C)c1.[Br-] [1-methyl-3-propylimidazolium bromide] + CN(C)C=O
Conditions	mass density, [1] [kg/m3]	refractive index, [4]	viscosity, [1] [mPa·s]
m1 = 0.0268	945.94	1.4289	0.88
m1 = 0.0444	947.2	1.4296	0.889
m1 = 0.0628	948.49	1.4302	0.897
m1 = 0.0851	950.04	1.4307	0.905
m1 = 0.103	951.26	1.4309	0.917
m1 = 0.1256	952.76	1.4312	0.923
m1 = 0.1396	953.7	1.4317	0.936
m1 = 0.1656	955.41	1.4321	0.956
m1 = 0.1826	956.49	1.4328	0.966
m1 = 0.2057	957.93	1.4336	0.975
